Measured values published in the supplement of paper PMC4862054.

Experiments:
[1] = tested on: HCC1599; settings: 72 h
Outline: (§1)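 Two sequential readouts followed a 72 h incubation of breast cancer cell lines with compound at 5 concentrations in 10-fold steps over a compound-specific 10,000-fold range: CellTox Green fluorescence (485/520 nm) for cell death, then CellTiter-Glo luminescence, after 10 min at room temperature, for viability. Each plate was normalised to 0.1 % DMSO and a positive kill control. Dose-response curves were fitted for EC50, censored at the top concentration.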

[2] = tested on: SK-BR-3; settings: 72 h
Outline: as §1

[3] = tested on: CAL-120; settings: 72 h
Outline: as §1

[4] = tested on: Hs578T; settings: 72 h
Outline: (§2)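 Compound dissolved in 5 µl medium was placed in 384-well plates before 20 µl of breast cancer cell suspension was added, and the plates were incubated for 72 h. Cells then received 2.5 µl CellTiter-Blue for 2 h at 37 °C, and fluorescence was read at 560/590 nm. EC50 values come from percent-inhibition dose-response fits that were censored at the highest concentration, with plates normalised to vehicle and a positive kill control and rows with a zero drug sensitivity score excluded.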

[5] = tested on: MDA-MB-468; settings: 72 h
Outline: as §2

[6] = tested on: BT-549; settings: 72 h
Outline: as §2

[7] = tested on: CAL-85-1; settings: 72 h
Outline: as §2

[8] = tested on: CAL-51; settings: 72 h
Outline: as §2

[9] = tested on: DU-4475; settings: 72 h
Outline: as §2

[10] = tested on: MDA-MB-468; test: normalised response (% of control), CellTiter-Glo; higher = more viable cells (100 = DMSO, 0 = benzethonium chloride kill control); settings: incubation time: 72 h
Outline: (§3)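 The table gives the normalised signal for a single concentration in each entry. Breast cancer cell lines were seeded (20 µl suspension) into 384-well plates holding compound at 5 concentrations in 10-fold steps over a compound-specific 10,000-fold range and incubated 72 h, then read for CellTox Green fluorescence (485/520 nm) and CellTiter-Glo luminescence. Normalisation on each plate used 0.1 % DMSO (100) and a positive kill control (0).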

[11] = tested on: MCF-10A; test: as above; settings: incubation time: 72 h
Outline: as §3

[12] = tested on: CAL-148; test: as above; settings: incubation time: 72 h
Outline: as §3

[13] = tested on: SK-BR-3; test: as above; settings: incubation time: 72 h
Outline: as §3

[14] = tested on: MDA-MB-436; settings: 72 h
Outline: as §2

[15] = tested on: BT-474; settings: 72 h
Outline: as §2

[16] = tested on: HCC1143; settings: 72 h
Outline: as §2

[17] = tested on: SK-BR-3; settings: 72 h; remark: listed apart in the source
Outline: as §2

[18] = tested on: BT-549; settings: 72 h; remark: listed apart in the source
Procedure: (§4)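 Drug sensitivity and resistance testing (DSRT) of breast cancer cell lines in 384-well plates, 5 concentrations in 10-fold dilutions over a compound-specific 10,000-fold range. After 72 h, cytotoxicity was read by CellTox Green fluorescence and viability by CellTiter-Glo luminescence (multiplexed), normalised to DMSO and benzethonium chloride controls. EC50 is the inflection point of the fitted dose-response curve (bottom asymptote free, so it can be relative for partial curves) and is censored at the highest tested concentration. Rows with DSS 0 (no meaningful response) were excluded.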

[19] = tested on: CAL-85-1; settings: 72 h; remark: listed apart in the source
Procedure: as §4

[20] = tested on: CAL-51; settings: 72 h; remark: listed apart in the source
Procedure: as §4

[21] = tested on: MDA-MB-436; settings: 72 h; remark: listed apart in the source
Outline: as §1

[22] = tested on: MCF-10A; settings: 72 h
Outline: as §1

[23] = tested on: CAL-85-1; settings: 72 h; remark: listed apart in the source
Outline: as §1

[24] = tested on: HDQ-P1; settings: 72 h
Outline: as §1

[25] = tested on: CAL-148; settings: 72 h
Outline: as §1

[26] = tested on: HCC1599; settings: 72 h; remark: listed apart in the source
Outline: as §2

[27] = tested on: HDQ-P1; settings: 72 h; remark: listed apart in the source
Outline: as §2

[28] = tested on: MFM-223; settings: 72 h
Outline: as §1

[29] = tested on: MFM-223; settings: 72 h; remark: listed apart in the source
Outline: as §2

[30] = tested on: Hs578T; settings: 72 h; remark: listed apart in the source
Outline: as §1

[31] = tested on: CAL-148; settings: 72 h; remark: listed apart in the source
Procedure: as §4

Structure (SMILES): C=C(c1ccc(C(=O)O)cc1)c1cc2c(cc1C)C(C)(C)CCC2(C)C [Bexarotene]
- EC50, CellTiter-Glo [1]: 165 nM
- EC50, CellTiter-Glo [2]: 254 nM

Structure (SMILES): CN(C)/N=N/c1[nH]cnc1C(N)=O [Dacarbazine]
- EC50, CellTiter-Glo [3]: > 10000 nM

Structure (SMILES): CCN(CCCOc1ccc2c(Nc3cc(CC(=O)Nc4cccc(F)c4)[nH]n3)ncnc2c1)CCOP(=O)(O)O [Barasertib]
- EC50, CellTiter-Blue viability [4]: 12.5 nM
- EC50, CellTiter-Blue viability [5]: 44.5 nM
- EC50, CellTiter-Blue viability [6]: 23.1 nM
- EC50, CellTiter-Blue viability [7]: 9.39 nM
- EC50, CellTiter-Blue viability [8]: 37.9 nM
- EC50, CellTiter-Blue viability [9]: 375 nM

Structure (SMILES): Cc1ccc(C(=O)N(CCCN)[C@@H](c2oc3cc(Cl)ccc3c(=O)c2Cc2ccccc2)C(C)C)cc1 (100 nM)
- normalised response [10]: 101%
- normalised response [11]: 96.8%
- normalised response [12]: 88.9%
- normalised response [13]: 91.9%

Structure (SMILES): C=C(c1ccc(C(=O)O)cc1)c1cc2c(cc1C)C(C)(C)CCC2(C)C [Bexarotene] (10000 nM)
- normalised response [10]: 110%
- normalised response [11]: 82.8%
- normalised response [12]: 79.9%
- normalised response [13]: 72.1%

Structure (SMILES): CCC1(c2ccc(N)cc2)CCC(=O)NC1=O (stereo unspecified) [Aminoglutethimide] (10000 nM)
- normalised response [10]: 97.3%
- normalised response [11]: 101%
- normalised response [12]: 108%
- normalised response [13]: 97.2%

Structure (SMILES): CNCc1ccc(-c2[nH]c3cc(F)cc4c3c2CCNC4=O)cc1 [Rucaparib] (10000 nM)
- normalised response [10]: 68.9%
- normalised response [11]: 82.8%
- normalised response [12]: 71.2%
- normalised response [13]: 67.7%

Structure (SMILES): N[C@@H](CSC(c1ccccc1)(c1ccccc1)c1ccccc1)C(=O)O [S-trityl-L-cysteine]
- EC50, CellTiter-Blue viability [14]: 4580 nM
- EC50, CellTiter-Blue viability [4]: 1910 nM
- EC50, CellTiter-Blue viability [5]: 1410 nM
- EC50, CellTiter-Blue viability [6]: 18300 nM
- EC50, CellTiter-Blue viability [15]: 10800 nM
- EC50, CellTiter-Blue viability [16]: > 40000 nM
- EC50, CellTiter-Blue viability [17]: 1130 nM

Structure (SMILES): CC(C)Cn1cnc2c(N)nc3ccccc3c21 [Imiquimod]
- EC50, CellTox Green [18]: > 2500 nM

Structure (SMILES): CN[C@@H]1C[C@H]2O[C@@](C)([C@@H]1OC)n1c3ccccc3c3c4c(c5c6ccccc6n2c5c31)C(=O)N[C@H]4O [UCN-01] (10000 nM)
- normalised response [10]: 1.36%
- normalised response [11]: 0.69%
- normalised response [12]: 9.37%
- normalised response [13]: 2.06%

Structure (SMILES): Cn1c(CCCC(=O)O)nc2cc(N(CCCl)CCCl)ccc21 [Bendamustine]
- EC50, CellTiter-Blue viability [17]: > 10000 nM

Structure (SMILES): C[C@@H](Oc1cc(-c2cnn(C3CCNCC3)c2)cnc1N)c1c(Cl)ccc(F)c1Cl [Crizotinib] (1000 nM)
- normalised response [10]: 88.1%
- normalised response [11]: 102%
- normalised response [12]: 99.3%
- normalised response [13]: 104%

Structure (SMILES): C#Cc1cccc(Nc2ncnc3cc(OCCOC)c(OCCOC)cc23)c1 [Erlotinib]
- EC50, CellTox Green [19]: 1590 nM
- EC50, CellTox Green [20]: 3160 nM
- EC50, CellTiter-Glo [21]: 7110 nM
- EC50, CellTiter-Glo [22]: 96 nM
- EC50, CellTiter-Glo [23]: 761 nM
- EC50, CellTiter-Glo [24]: 28.7 nM
- EC50, CellTiter-Glo [3]: 9090 nM
- EC50, CellTiter-Glo [25]: 881 nM
- EC50, CellTiter-Glo [2]: 3440 nM
- EC50, CellTiter-Blue viability [14]: 840 nM
- EC50, CellTiter-Blue viability [5]: 1510 nM
- EC50, CellTiter-Blue viability [15]: 1750 nM
- EC50, CellTiter-Blue viability [26]: 103 nM
- EC50, CellTiter-Blue viability [17]: 4990 nM
- EC50, CellTiter-Blue viability [7]: 754 nM
- EC50, CellTiter-Blue viability [27]: 90.2 nM

Structure (SMILES): Cc1ccc(-n2nc(C(C)(C)C)cc2NC(=O)Nc2ccc(OCCN3CCOCC3)c3ccccc23)cc1 [Doramapimod]
- EC50, CellTiter-Glo [28]: 2800 nM
- EC50, CellTiter-Blue viability [7]: 27.3 nM

Structure (SMILES): Clc1ccc(Nc2nnc(Cc3ccncc3)c3ccccc23)cc1 [Vatalanib] (10000 nM)
- normalised response [10]: 75.2%
- normalised response [11]: 110%
- normalised response [12]: 105%
- normalised response [13]: 95.5%

Structure (SMILES): C[C@]12CC[C@@H]3c4ccc(O)cc4C[C@@H](CCCCCCCCC[S+]([O-])CCCC(F)(F)C(F)(F)F)[C@H]3[C@@H]1CC[C@@H]2O (stereo partly specified) [Fulvestrant] (1000 nM)
- normalised response [10]: 96%
- normalised response [11]: 101%
- normalised response [12]: 104%
- normalised response [13]: 104%

Structure (SMILES): Cc1ccc(C(=O)N(CCCN)[C@@H](c2oc3cc(Cl)ccc3c(=O)c2Cc2ccccc2)C(C)C)cc1
- EC50, CellTiter-Blue viability [14]: 2.55 nM
- EC50, CellTiter-Blue viability [4]: 4.05 nM
- EC50, CellTiter-Blue viability [5]: 1.88 nM
- EC50, CellTiter-Blue viability [6]: 1.83 nM
- EC50, CellTiter-Blue viability [29]: 3.75 nM
- EC50, CellTiter-Blue viability [15]: 4.38 nM
- EC50, CellTiter-Blue viability [16]: 2.09 nM
- EC50, CellTiter-Blue viability [17]: 0.74 nM
- EC50, CellTiter-Blue viability [7]: 4.95 nM
- EC50, CellTiter-Blue viability [27]: 2.34 nM
- EC50, CellTiter-Blue viability [8]: 6.53 nM
- EC50, CellTiter-Blue viability [9]: 8.62 nM

Structure (SMILES): C[C@]12CC[C@@H]3c4ccc(O)cc4C[C@@H](CCCCCCCCC[S+]([O-])CCCC(F)(F)C(F)(F)F)[C@H]3[C@@H]1CC[C@@H]2O (stereo partly specified) [Fulvestrant]
- EC50, CellTiter-Blue viability [29]: 74.5 nM

Structure (SMILES): O=C(O)c1ccc(-c2c[nH]c3ncc(-c4ccccc4)cc23)cc1C1CCCC1
- EC50, CellTiter-Glo [30]: > 10000 nM
- EC50, CellTiter-Glo [2]: > 10000 nM

Structure (SMILES): Cn1c(Nc2ccc(C(F)(F)F)cc2)nc2cc(Oc3ccnc(-c4ncc(C(F)(F)F)[nH]4)c3)ccc21 [RAF265] (1000 nM)
- normalised response [10]: 50.8%
- normalised response [11]: 86.6%
- normalised response [12]: 99.9%
- normalised response [13]: 92.1%

Structure (SMILES): CC1(C)NC(=O)N(c2ccc([N+](=O)[O-])c(C(F)(F)F)c2)C1=O [Nilutamide] (10000 nM)
- normalised response [10]: 111%
- normalised response [11]: 104%
- normalised response [12]: 112%
- normalised response [13]: 108%

Structure (SMILES): COc1cc2nccc(Oc3ccc(NC(=O)C4(C(=O)Nc5ccc(F)cc5)CC4)cc3)c2cc1OC [Cabozantinib] (1000 nM)
- normalised response [10]: 87.2%
- normalised response [11]: 94.6%
- normalised response [12]: 104%
- normalised response [13]: 107%

Structure (SMILES): O=C1CCC(N2C(=O)c3ccccc3C2=O)C(=O)N1 (stereo unspecified) [Thalidomide]
- EC50, CellTox Green [31]: > 10000 nM
